Reference: US10543240B2, “Topical composition containing glycerin and yeast extract” (Johnson & Johnson Consumer Inc., priority 2016, dated 2020)

System: S. epidermis (ATCC 12228)
Assay: Growth of S. epidermidis under aerobic conditions, time-to-detection (BacT/Alert 3D system)
Type: cell-based, Staphylococcus epidermidis
Conditions: S. epidermidis inoculated at 1000 CFU/mL in standard aerobic bottles; test material in PBS; average of three samples; PBS control = 100
Excerpt: The ability of four test materials to grow S. epidermis (ATCC 12228) under aerobic conditions was investigated. The materials were: 1) phosphate buffered saline buffer solution (PBS), 2) PBS containing 5% of an aqueous solution containing 0.13 weight percent of an extract of Pichia anomala grown on kiwi, 3) PBS containing 3% glycerol, and 4) PBS containing both 5% of an aqueous solution containing 0.13 weight percent of an extract of Pichia anomala grown on kiwi and 3% glycerol. The BacT/Alert 3D system (BioMerieux Inc.) was used to determine the time-to-detection (“TTD”) of S. epidermidis according to the manufacturer's instruction. S. epidermidis were inoculated at concentrations of 1000 colony-forming units (CFU)/mL into standard aerobic bottles (BioMerieux Inc.). The test materials were prepared in PBS and injected into the standard aerobic bottles at the indicated final concentration with the volume of 1 ml. Standard aerobic bottles inoculated with S. epidermidis only and 10 ml of PBS was used as control. Bottles were then inserted into the BacT/Alert 3D system until stationary growth phase. The TTD values were automatically calculated by the BacT/Alert 3D according to the growth algorism. Three samples were tested for each test material and the resulted were averaged. Relative Time-to-Detection (RTTD) was calculated as (TTD treatment-TTD control)/TTD control*100.

## OCC(O)CO [3% Glycerol, glycerol]
  RTTD (Relative Time-to-Detection): 92.56
